# Data from patent publication US8802678B2, “Carbonylated (aza) cyclohexanes as dopamine D3 receptor ligands” (Bioprojet, priority 2006, dated 2014).
row,Compound,melting point
1,Cl.N#CCCC(=O)N[C@H]1CC[C@H](CCN2CCN(c3cccc(C(F)(F)F)c3)CC2)CC1,230 °C
2,Cl.N#CCCCC(=O)N1CCC(CCN2CCN(c3cccc(C(F)(F)F)c3)CC2)CC1,95 °C
3,CCc1cccc(N2CCN(CC[C@H]3CC[C@H](NC(=O)CCCC#N)CC3)CC2)c1.Cl,205 °C
4,Cl.Cl.NC(=O)CN1CCC(CCN2CCN(c3cccc(C(F)(F)F)c3)CC2)CC1,120 °C
5,CC(=O)CN1CCC(CCN2CCN(c3cc(F)cc(F)c3)CC2)CC1.Cl.Cl,260 °C
6,CC(=O)CN1CCC(CCN2CCN(c3cccc(C(F)(F)F)c3C)CC2)CC1.Cl.Cl,300 °C
7,CC(=O)CN1CCC(CCN2CCN(c3cc(F)ccc3C)CC2)CC1.Cl.Cl,281 °C
8,Cl.Cl.O=C(CN1CCC(CCN2CCN(c3cccc(C(F)(F)F)c3)CC2)CC1)c1ccc(F)c(F)c1,220 °C
9,CC(=O)CN1CCC(CCN2CCN(c3cccc4cccnc34)CC2)CC1.Cl.Cl,270 °C
10,CCCc1cccc(N2CCN(CCC3CCN(CC(C)=O)CC3)CC2)c1.Cl.Cl,256 °C
11,CC(=O)CN1CCC(CCN2CCN(c3cccc(F)c3F)CC2)CC1.Cl.Cl,270 °C
12,N#CCC(=O)N[C@H]1CC[C@H](CCN2CC=C(c3ccc(Cl)cc3)CC2)CC1,220 °C
13,CC(=O)CN1CCC(CCN2CCN(c3cc(C)c(F)cc3Cl)CC2)CC1.Cl.Cl,344 °C
14,COc1cc(N2CCN(CCC3CCN(CC(C)=O)CC3)CC2)cc(C(F)(F)F)c1.Cl.Cl,277 to 278 °C
15,CC(=O)CN1CCC(CCN2CCN(c3ccc(Cl)cc3F)CC2)CC1.Cl.Cl,206 °C
16,CCOCC(=O)N[C@H]1CC[C@H](CCN2CCN(c3ccc(C)c(Cl)c3)CC2)CC1.Cl,162 °C
17,CCOCC(=O)N[C@H]1CC[C@H](CCN2CC=C(c3ccc(F)cc3)CC2)CC1,122 °C
18,CC(=O)CN1CCC(CCN2CCN(c3cc(C(F)(F)F)ccc3F)CC2)CC1.Cl.Cl,230 °C
19,CC(=O)CN1CCC(CCN2CCN(c3cccc4c3OCCCO4)CC2)CC1.Cl.Cl,280 °C
20,CC(=O)CN1CCC(CCN2CCN(c3cccc(C(C)(F)F)c3)CC2)CC1.Cl.Cl,256 °C

row,Compound,melting point
1,CC(=O)CN1CCC(CCN2CCN(c3cccc(S(C)(=O)=O)c3)CC2)CC1.Cl.Cl,260 °C
2,CC(=O)CN1CCC(CCN2CC=C(c3ccccc3)CC2)CC1,80 °C
3,CC(=O)CN1CCC(CCN2CCc3cc(C#N)ccc3C2)CC1.Cl.Cl,249 °C
4,CC(=O)CN1CCC(CCN2CCN(c3ccc(Cl)c(C(F)(F)F)c3)CC2)CC1.Cl.Cl,263 °C
5,CC(=O)CN1CCC(CCN2CCN(c3ccc(F)cc3C)CC2)CC1.Cl.Cl,283 °C
6,CC(=O)CN1CCC(CCN2CCN(c3cccc4c3CCCCC4)CC2)CC1.Cl.Cl,300 °C
7,CC(=O)CN1CCC(CCN2CCN(c3cccc(Oc4ccccc4)c3)CC2)CC1.Cl.Cl,241 °C
8,CC(=O)CN1CCC(CCN2CCN(c3ccc(F)c(F)c3)CC2)CC1.Cl.Cl,249 °C
9,CC(=O)CN1CCC(CCN2CCN(c3cccc(C(C)C)c3)CC2)CC1.Cl.Cl,252 °C
10,COCc1cccc(N2CCN(CCC3CCN(CC(C)=O)CC3)CC2)c1.Cl.Cl,255 °C
11,CC(=O)CN1CCC(CCN2CCN(c3cc(Cl)c(Cl)cc3Cl)CC2)CC1.Cl.Cl,261 °C
12,Cl.N#CCCC(=O)N1CCC(CCN2CCN(c3cc(Cl)cc(C(F)(F)F)c3)CC2)CC1,128 °C
13,CC(=O)CN1CCC(CCN2CC=C(c3cc(F)cc(C(F)(F)F)c3)CC2)CC1.Cl.Cl,287 °C
14,Cl.O=C(CC(F)(F)F)N1CCC(CCN2CCN(c3cccc4c3CCC4)CC2)CC1,206 °C
15,CCc1ccccc1C1=CCN(CC[C@H]2CC[C@H](NC(=O)CC#N)CC2)CC1,158 °C
16,CC(=O)CN1CCC(CCN2CCN(c3ccccc3CC(C)C)CC2)CC1.Cl.Cl,285 °C
17,CSc1ccccc1N1CCN(CCC2CCN(CC(C)=O)CC2)CC1.Cl.Cl,280 °C
18,CC(=O)CN1CCC(CCN2CCN(c3cccc(Cl)c3C#N)CC2)CC1.Cl.Cl,284 °C
19,CC(=O)CN1CCC(CCN2CCN(c3cc(Cl)c(Cl)cc3F)CC2)CC1.Cl.Cl,309 °C (dec.)
20,CC(C)(C)OC(=O)N1CCC(CCN2CCN(c3cccc(C(F)(F)F)c3)CC2)CC1.Cl,188 °C

# Continued, values first:
row,melting point,Compound
1,260 °C,Cl.Cl.O=C(CN1CCC(CCN2CCN(c3cccc(C(F)(F)F)c3)CC2)CC1)c1ccccc1
2,148 °C,CCC(=O)C(=O)N1CCC(CCN2CCN(c3cccc(C(F)(F)F)c3)CC2)CC1.Cl
3,156 °C,N#CCC(=O)N[C@H]1CC[C@H](CCN2CC=C(c3ccccc3F)CC2)CC1
4,203 °C,N#CCC(=O)N[C@H]1CC[C@H](CCN2CC=C(c3ccccc3)CC2)CC1
5,215 °C,CC(C)OCC(=O)N[C@H]1CC[C@H](CCN2CCN(c3cccc(F)c3F)CC2)CC1.Cl
6,275 °C,COc1ccc(Cl)cc1N1CCN(CCC2CCN(CC(C)=O)CC2)CC1.Cl.Cl
7,145 °C,CCOCC(=O)N1CCC(CCN2CCN(c3cccc(C(F)(F)F)c3)CC2)CC1.Cl
8,296 to 297 °C,CC(=O)CN1CCC(CCN2CC=C(c3cccc(Cl)c3Cl)CC2)CC1.Cl.Cl
9,283 °C,CC(=O)CN1CCC(CCN2CCN(c3cc(C)ccc3Cl)CC2)CC1.Cl.Cl
10,268 °C,CC(=O)CN1CCC(CCN2CC=C(c3cccc(C(F)(F)F)c3)CC2)CC1.Cl.Cl
11,147 °C,CCc1cccc(C2=CCN(CC[C@H]3CC[C@H](NC(=O)CCCC#N)CC3)CC2)c1
12,315 °C,CC(=O)CCCN1CCC(CCN2CCN(c3cccc(C(F)(F)F)c3)CC2)CC1.Cl.Cl
13,202 °C,N#CCC(=O)N[C@H]1CC[C@H](CCN2CC=C(c3ccc(F)cc3)CC2)CC1
14,300 °C,CC(=O)CN1CCC(CCN2CCN(c3cc(C)cc(Cl)c3)CC2)CC1.Cl.Cl
15,171 °C,N#CCCCC(=O)N[C@H]1CC[C@H](CCN2CC=C(c3ccccc3)CC2)CC1
16,268 °C,CC(=O)CN1CCC(CCN2CCN(c3cccc(F)c3)CC2)CC1.Cl.Cl
17,246 °C,CCOc1cccc(N2CCN(CCC3CCN(CC(C)=O)CC3)CC2)c1.Cl.Cl
18,278 to 279 °C,CC(=O)CN1CCC(CCN2CCN(c3ccc(C(F)(F)F)cc3F)CC2)CC1.Cl.Cl
19,230 °C,CC(=O)CN1CCC(CCN2CCN(c3ccc(Cl)c(Cl)c3F)CC2)CC1.Cl.Cl
20,291 °C,CC(=O)CN1CCC(CCN2CCN(c3ccc4c(c3)CCC4)CC2)CC1.Cl.Cl
21,185 °C,N#CCCCC(=O)N[C@H]1CC[C@H](CCN2CC=C(c3ccc(C(F)(F)F)cc3)CC2)CC1
22,101 °C,CC(=O)CN1CCC(CCN2CC=C(c3ccc(Cl)cc3)CC2)CC1
23,295 °C,CC(=O)CN1CCC(CCN2CCN(c3ccc(C#N)cc3)CC2)CC1.Cl.Cl
24,72 °C,CC(=O)CN1CCC(CCN2CC=C(c3ccc(F)cc3)CC2)CC1
25,172 °C,CC(=O)CN1CCC(CCN2CCN(c3cc(Cl)ccc3Cl)CC2)CC1.Cl.Cl
26,291 °C,CC(=O)CN1CCC(CCN2CC=C(c3cccc4c3CCC4)CC2)CC1.Cl.Cl

row,melting point,Compound
1,276 °C,CC(=O)CN1CCC(CCN2CCN(c3ccc(C)c(F)c3)CC2)CC1.Cl.Cl
2,235 °C,CC(=O)CN1CCC(CCN2CCN(c3cccc(-c4ccccc4)c3)CC2)CC1.Cl.Cl
3,339 °C,CC(=O)CN1CCC(CCN2CCC(c3cccc4c3CCC4)CC2)CC1.Cl.Cl
4,260 °C,COc1ccc(C(F)(F)F)cc1N1CCN(CCC2CCN(CC(C)=O)CC2)CC1.Cl.Cl
5,270 °C,CCCC(=O)CN1CCC(CCN2CCN(c3cccc4c3CCC4)CC2)CC1.Cl.Cl
6,249 °C,CC(=O)CN1CCC(CCN2CCN(c3c(C)cccc3C)CC2)CC1.Cl.Cl
7,263 °C,COc1ccc(Cl)c(N2CCN(CCC3CCN(CC(C)=O)CC3)CC2)c1.Cl.Cl
8,295 °C,CC(=O)CN1CCC(CCN2CCN(c3cc(F)cc(C(F)(F)F)c3)CC2)CC1.Cl.Cl
9,290 °C,CC(=O)CN1CCC(CCN2CCN(c3ccccc3C(F)(F)F)CC2)CC1.Cl.Cl
10,253 °C,CC(=O)CN1CCC(CCN2CCN(c3cccc(Cc4ccccc4)c3)CC2)CC1.Cl.Cl
11,277 °C,CC(=O)CN1CCC(CCN2CCN(c3ccc(Cl)cc3)CC2)CC1.Cl.Cl
12,210 °C,Cl.N#CCCCC(=O)N1CCC(CCN2CCN(c3cccc4c3CCC4)CC2)CC1
13,270 °C,CCOCC(=O)N1CCC(CCN2CCN(c3cccc4c3CCC4)CC2)CC1.Cl
14,270 °C,CC(=O)CN1CCC(CCN2CCN(c3cc(Cl)ccc3F)CC2)CC1.Cl.Cl
15,259 °C,CC(=O)CN1CCC(CCN2CCN(c3cc(Cl)ccc3C)CC2)CC1.Cl.Cl
16,183 °C,Cc1cccc(C2=CCN(CC[C@H]3CC[C@H](NC(=O)C4=CCCC4)CC3)CC2)c1C#N
17,163 °C,N#CCC(=O)N[C@H]1CC[C@H](CCN2CC=C(c3cc(F)cc(C(F)(F)F)c3)CC2)CC1
18,114 °C,N#CCCCC(=O)N[C@H]1CC[C@H](CCN2CC=C(c3cc(F)cc(C(F)(F)F)c3)CC2)CC1
19,275 °C,CC(=O)CN1CCC(CCN2CCN(c3ccc(Cl)c(Cl)c3Cl)CC2)CC1.Cl.Cl
20,140 °C,Cc1ccccc1C1=CCN(CC[C@H]2CC[C@H](NC(=O)CCCC#N)CC2)CC1
21,117 °C,COCC(=O)N[C@H]1CC[C@H](CCN2CC=C(c3cccc(C#N)c3)CC2)CC1
22,177 °C,N#Cc1cccc(C2=CCN(CC[C@H]3CC[C@H](NC(=O)CCC(F)(F)F)CC3)CC2)c1
23,320 to 325 °C,CC(=O)CN1CCC(CCN2CCN(c3cccc(Cl)c3C)CC2)CC1.Cl.Cl
24,145 °C,COCCCC(=O)N[C@H]1CC[C@H](CCN2CC=C(c3cccc(C(F)(F)F)c3)CC2)CC1
25,75 °C,CCOCC(=O)N[C@H]1CC[C@H](CCN2CC=C(c3cccc(C(F)(F)F)c3)CC2)CC1
26,250 °C,CC(=O)CN1CCC(CCN2CCN(c3ccccc3F)CC2)CC1.Cl.Cl
